Measured values from article PMC11231114 (EJNMMI Research, 2024).

Assay: Ex vivo biodistribution after i.v. injection
Assay type: in vivo, Wistar rats
Procedure: Approximately 0.2 mL/31.1 MBq of compound was administered i.v. At established time points after injection (15 min, 30 min, 1 h, 2 h, 4 h and 6 h), the animals were euthanized by cervical dislocation and dissected. Selected organs and tissues were weighed, and their radioactivity was measured using a NaI(Tl) crystal gamma counter. The results were adjusted for the radioactive decay of ^18F. The physiological distribution was calculated and expressed in terms of the percentage of administrated dose found in each of the selected organs (%ID) or per gram of tissues/organ (%ID/g) with suitable standards of the injected dose.
The results of radiopharmaceutical uptake are presented as a percentage of the dose administered per gram of tissue (%ID/g) in the form of an average with standard deviation (%ID/g; mean ± standard deviation (SD)). Where applicable, statistical analysis was performed with one-way analysis of variance (ANOVA) using GraphPad Prism software (GraphPad Software, La Jolla, CA, USA).

[1] = 15 min after dosing, listed as [18F]SYN2

With CN(C)c1ccc2cc3ccc(N(C)C)cc3[n+](CC[18F])c2c1 [[^18F]SYN2] the “Mean %ID, Brain” value (15 min after dosing) was 0.23 (0.09) %ID, the “Mean %ID, Heart” value (15 min after dosing) was 2.15 (0.18) %ID and the “Mean %ID, Intestine” value (15 min after dosing) was 17.1 ± 1.8 %ID. For the same molecule, the “Mean %ID, Kidneys” value (15 min after dosing) was 13.4 ± 4.0 %ID, the “Mean %ID, Liver” value (15 min after dosing) was 7.57 (0.96) %ID and the “Mean %ID, Lungs” value (15 min after dosing) was 3.88 (0.36) %ID. The “Mean %ID, Pancreas” value (15 min after dosing) was 1.33 (0.23) %ID, the “Mean %ID, Rest of the body” value (15 min after dosing) was 51.01 (2.66) %ID and the “Mean %ID, Spleen” value (15 min after dosing) was 1.01 (0.20) %ID. For the same molecule, the “Mean %ID, Stomach” value (15 min after dosing) was 1.99 (0.68) %ID, the “Mean %ID, Urine” value (15 min after dosing) was 0.46 (0.31) %ID and the “Mean %ID/g, Blood” value (15 min after dosing) was 0.33 (0.04) %ID/g. The “Mean %ID/g, Brain” value (15 min after dosing) was 0.13 (0.15) %ID/g, the “Mean %ID/g, Heart” value (15 min after dosing) was 3.02 %ID/g and the “Mean %ID/g, Intestine” value (15 min after dosing) was 0.98 (0.10) %ID/g. For the same molecule, the “Mean %ID/g, Kidneys” value (15 min after dosing) was 7.07 (1.77) %ID/g, the “Mean %ID/g, Liver” value (15 min after dosing) was 0.89 (0.14) %ID/g and the “Mean %ID/g, Lungs” value (15 min after dosing) was 3.04 (0.55) %ID/g. For the same molecule, the “Mean %ID/g, Muscle” value (15 min after dosing) was 0.82 (0.13) %ID/g, the “Mean %ID/g, Pancreas” value (15 min after dosing) was 2.22 (0.24) %ID/g and the “Mean %ID/g, Spleen” value (15 min after dosing) was 1.96 (0.51) %ID/g. For the same molecule, the “Mean %ID/g, Stomach” value (15 min after dosing) was 1.65 (0.94) %ID/g, the “Mean %ID, Intestine” value [1] was 17.12 (1.81) %ID and the “Mean %ID, Kidneys” value [1] was 13.35 (3.97) %ID. For the same molecule, the “Mean %ID, Brain” value (30 min after dosing) was 0.19 (0.01) %ID, the “Mean %ID, Heart” value (30 min after dosing) was 2.19 (0.26) %ID and the “Mean %ID, Intestine” value (30 min after dosing) was 18.27 (1.40) %ID. The “Mean %ID, Kidneys” value (30 min after dosing) was 14.01 (3.78) %ID, the “Mean %ID, Liver” value (30 min after dosing) was 6.87 (1.10) %ID and the “Mean %ID, Lungs” value (30 min after dosing) was 2.64 (0.47) %ID. For the same molecule, the “Mean %ID, Pancreas” value (30 min after dosing) was 0.97 (0.32) %ID, the “Mean %ID, Rest of the body” value (30 min after dosing) was 51.34 (1.73) %ID and the “Mean %ID, Spleen” value (30 min after dosing) was 0.79 (0.16) %ID. For the same molecule, the “Mean %ID, Stomach” value (30 min after dosing) was 1.54 (0.12) %ID, the “Mean %ID, Urine” value (30 min after dosing) was 0.53 (0.25) %ID and the “Mean %ID/g, Blood” value (30 min after dosing) was 0.14 (0.02) %ID/g. The “Mean %ID/g, Brain” value (30 min after dosing) was 0.11 (0.00) %ID/g, the “Mean %ID/g, Heart” value (30 min after dosing) was 2.96 (0.49) %ID/g and the “Mean %ID/g, Intestine” value (30 min after dosing) was 1.29 (0.40) %ID/g. For the same molecule, the “Mean %ID/g, Kidneys” value (30 min after dosing) was 7.22 (2.09) %ID/g, the “Mean %ID/g, Liver” value (30 min after dosing) was 0.74 (0.11) %ID/g and the “Mean %ID/g, Lungs” value (30 min after dosing) was 1.85 (0.24) %ID/g. The “Mean %ID/g, Muscle” value (30 min after dosing) was 0.46 (0.11) %ID/g, the “Mean %ID/g, Pancreas” value (30 min after dosing) was 1.75 (0.56) %ID/g and the “Mean %ID/g, Spleen” value (30 min after dosing) was 1.59 (0.41) %ID/g. For the same molecule, the “Mean %ID/g, Stomach” value (30 min after dosing) was 1.11 (0.08) %ID/g, the “heart/liver ratio” value (1 h, based on %ID/g) was 7.0 ± 1.8 and the “heart/lungs ratio” value (1 h, based on %ID/g) was 2.1 ± 0.2. For the same molecule, the “Mean %ID, Brain” value (1 h after dosing) was 0.22 (0.12) %ID, the “Mean %ID, Heart” value (1 h after dosing) was 2.23 (0.11) %ID and the “Mean %ID, Intestine” value (1 h after dosing) was 20.18 (3.19) %ID. The “Mean %ID, Kidneys” value (1 h after dosing) was 12.91 (2.36) %ID, the “Mean %ID, Liver” value (1 h after dosing) was 3.66 (0.83) %ID and the “Mean %ID, Lungs” value (1 h after dosing) was 1.89 (0.23) %ID. For the same molecule, the “Mean %ID, Pancreas” value (1 h after dosing) was 0.93 (0.01) %ID, the “Mean %ID, Rest of the body” value (1 h after dosing) was 46.30 (1.89) %ID and the “Mean %ID, Spleen” value (1 h after dosing) was 0.60 (0.10) %ID. For the same molecule, the “Mean %ID, Stomach” value (1 h after dosing) was 1.84 (0.47) %ID, the “Mean %ID, Urine” value (1 h after dosing) was 1.59 (0.30) %ID and the “Mean %ID/g, Blood” value (1 h after dosing) was 0.08 (0.02) %ID/g. The “Mean %ID/g, Brain” value (1 h after dosing) was 0.12 (0.06) %ID/g, the “Mean %ID/g, Heart” value (1 h after dosing) was 3.0 ± 0.2 %ID/g and the “Mean %ID/g, Intestine” value (1 h after dosing) was 1.04 (0.18) %ID/g. For the same molecule, the “Mean %ID/g, Kidneys” value (1 h after dosing) was 6.76 (1.23) %ID/g, the “Mean %ID/g, Liver” value (1 h after dosing) was 0.45 (0.11) %ID/g and the “Mean %ID/g, Lungs” value (1 h after dosing) was 1.42 (0.15) %ID/g. For the same molecule, the “Mean %ID/g, Muscle” value (1 h after dosing) was 0.58 (0.18) %ID/g, the “Mean %ID/g, Pancreas” value (1 h after dosing) was 1.63 (0.16) %ID/g and the “Mean %ID/g, Spleen” value (1 h after dosing) was 1.15 (0.23) %ID/g. For the same molecule, the “Mean %ID/g, Stomach” value (1 h after dosing) was 1.33 (0.33) %ID/g, the “Mean %ID/g, Heart” value (1 h after dosing, listed as [18F]SYN2) was 2.99 (0.20) %ID/g and the heart/blood ratio (1 h post-injection) was 37. The “Mean %ID, Brain” value (2 h after dosing) was 0.12 (0.01) %ID and the “Mean %ID, Heart” value (2 h after dosing) was 2.03 (0.23) %ID.
